# In ChEMBL document CHEMBL4138123, “Design, synthesis and biological evaluation of novel pyrazolochalcones as potential modulators of PI3K/Akt/mTOR pathway and inducers of apoptosis in breast cancer cells” (Eur J Med Chem, 2017):
# Key:
# Type in all cases: functional
# [1] = test system: NCI-H23; assay: Cytotoxicity against human NCI-H23 cells assessed as growth inhibition after 48 hrs by sulforhodamine B assay; details: NCI-H23, 48 h; for CC50: read-out: LC50 (the source's name)
# [2] = test system: SF-268; assay: Cytotoxicity against human SF268 cells assessed as growth inhibition after 48 hrs by sulforhodamine B assay; details: SF-268, 48 h; for CC50: read-out: LC50 (the source's name)
# [3] = test system: SK-MEL-5; assay: Cytotoxicity against human SK-MEL-5 cells assessed as growth inhibition after 48 hrs by sulforhodamine B assay; details: SK-MEL-5, 48 h
# [4] = test system: SK-OV-3; assay: Cytotoxicity against human SKOV3 cells assessed as growth inhibition after 48 hrs by sulforhodamine B assay; details: SK-OV-3, 48 h
# [5] = test system: SN12C; assay: Cytotoxicity against human SN12C cells assessed as growth inhibition after 48 hrs by sulforhodamine B assay
# [6] = test system: SK-MEL-5; assay: Cytotoxicity against human SK-MEL-5 cells assessed as cell growth at 0.01 uM after 48 hrs by sulforhodamine B assay relative to control; details: SK-MEL-5, 48 h, read-out: Activity
# [7] = test system: Malme-3M; assay: Cytotoxicity against human MALME-3M cells assessed as cell growth at 0.01 uM after 48 hrs by sulforhodamine B assay relative to control; details: read-out: Activity
# [8] = test system: RPMI-8226; assay: Cytotoxicity against human RPMI8226 cells assessed as cell growth at 0.01 uM after 48 hrs by sulforhodamine B assay relative to control; details: RPMI-8226, 48 h, read-out: Activity
# [9] = test system: MOLT-4; assay: Cytotoxicity against human MOLT4 cells assessed as cell growth at 0.01 uM after 48 hrs by sulforhodamine B assay relative to control; details: MOLT-4, 48 h, read-out: Activity
# [10] = test system: BT-549; assay: Cytotoxicity against human BT549 cells assessed as cell growth at 0.01 uM after 48 hrs by sulforhodamine B assay relative to control; details: BT-549, 48 h, read-out: Activity
# [11] = test system: A549; assay: Cytotoxicity against human A549/ATCC cells assessed as cell growth at 0.1 uM after 48 hrs by sulforhodamine B assay relative to control; details: A549, 48 h, read-out: Activity
# [12] = test system: SW-620; assay: Cytotoxicity against human SW620 cells assessed as cell growth at 0.1 uM after 48 hrs by sulforhodamine B assay relative to control; details: SW-620, 48 h, read-out: Activity
# [13] = test system: M14; assay: Cytotoxicity against human M14 cells assessed as cell growth at 0.1 uM after 48 hrs by sulforhodamine B assay relative to control; details: M14, 48 h, read-out: Activity
# [14] = test system: CAKI-1; assay: Cytotoxicity against human Caki1 cells assessed as cell growth at 0.1 uM after 48 hrs by sulforhodamine B assay relative to control; details: CAKI-1, 48 h, read-out: Activity
# [15] = test system: Hs-578T; assay: Cytotoxicity against human Hs 578T cells assessed as cell growth at 0.1 uM after 48 hrs by sulforhodamine B assay relative to control; details: read-out: Activity
# [16] = test system: NCI-H522; assay: Cytotoxicity against human NCI-H522 cells assessed as cell growth at 1 uM after 48 hrs by sulforhodamine B assay relative to control; details: NCI-H522, 48 h, read-out: Activity
# [17] = test system: HCT-15; assay: Cytotoxicity against human HCT15 cells assessed as cell growth at 1 uM after 48 hrs by sulforhodamine B assay relative to control; details: HCT-15, 48 h, read-out: Activity
# [18] = test system: OVCAR-4; assay: Cytotoxicity against human OVCAR4 cells assessed as cell growth at 1 uM after 48 hrs by sulforhodamine B assay relative to control; details: OVCAR-4, 48 h, read-out: Activity
# [19] = test system: A498; assay: Cytotoxicity against human A498 cells assessed as cell growth at 1 uM after 48 hrs by sulforhodamine B assay relative to control; details: A498, 48 h, read-out: Activity
# [20] = test system: TK-10; assay: Cytotoxicity against human TK10 cells assessed as cell growth at 1 uM after 48 hrs by sulforhodamine B assay relative to control; details: TK-10, 48 h, read-out: Activity
# [21] = test system: MDA-MB-231; assay: Cytotoxicity against human MDA-MB-231 cells assessed as cell growth at 1 uM after 48 hrs by sulforhodamine B assay relative to control; details: MDA-MB-231, 48 h, read-out: Activity
# [22] = test system: MDA-MB-468; assay: Cytotoxicity against human MDA-MB-468 cells assessed as cell growth at 1 uM after 48 hrs by sulforhodamine B assay relative to control; details: MDA-MB-468, 48 h, read-out: Activity
# [23] = test system: SR; assay: Cytotoxicity against human SR cells assessed as cell growth at 10 uM after 48 hrs by sulforhodamine B assay relative to control; details: read-out: Activity
# [24] = test system: NCI-H322M; assay: Cytotoxicity against human NCI-H322M cells assessed as cell growth at 10 uM after 48 hrs by sulforhodamine B assay relative to control; details: read-out: Activity
# [25] = test system: SW-620; assay: Cytotoxicity against human SW620 cells assessed as cell growth at 10 uM after 48 hrs by sulforhodamine B assay relative to control; details: SW-620, 48 h, read-out: Activity
# [26] = test system: MDA-MB-435; assay: Cytotoxicity against human MDA-MB-435 cells assessed as cell growth at 10 uM after 48 hrs by sulforhodamine B assay relative to control; details: MDA-MB-435, 48 h, read-out: Activity
# [27] = test system: UACC-62; assay: Cytotoxicity against human UACC62 cells assessed as cell growth at 10 uM after 48 hrs by sulforhodamine B assay relative to control; details: UACC-62, 48 h, read-out: Activity
# [28] = test system: Hs-578T; assay: Cytotoxicity against human Hs 578T cells assessed as cell growth at 10 uM after 48 hrs by sulforhodamine B assay relative to control; details: read-out: Activity
# [29] = test system: CCRF-CEM; assay: Cytotoxicity against human CCRF-CEM cells assessed as cell growth at 100 uM after 48 hrs by sulforhodamine B assay relative to control; details: read-out: Activity
# [30] = test system: NCI-H226; assay: Cytotoxicity against human NCI-H226 cells assessed as cell growth at 100 uM after 48 hrs by sulforhodamine B assay relative to control; details: NCI-H226, 48 h, read-out: Activity
# [31] = test system: NCI-H23; assay: Cytotoxicity against human NCI-H23 cells assessed as cell growth at 100 uM after 48 hrs by sulforhodamine B assay relative to control; details: NCI-H23, 48 h, read-out: Activity
# [32] = test system: HCT-116; assay: Cytotoxicity against human HCT116 cells assessed as cell growth at 100 uM after 48 hrs by sulforhodamine B assay relative to control; details: HCT-116, 48 h, read-out: Activity
# [33] = test system: OVCAR-4; assay: Cytotoxicity against human OVCAR4 cells assessed as cell growth at 100 uM after 48 hrs by sulforhodamine B assay relative to control; details: OVCAR-4, 48 h, read-out: Activity
# [34] = test system: NCI/ADR-RES; assay: Cytotoxicity against human NCI/ADR-RES cells assessed as cell growth at 100 uM after 48 hrs by sulforhodamine B assay relative to control; details: read-out: Activity
# [35] = test system: TK-10; assay: Cytotoxicity against human TK10 cells assessed as cell growth at 100 uM after 48 hrs by sulforhodamine B assay relative to control; details: TK-10, 48 h, read-out: Activity
smiles,measurement,setting,value
COc1cc(C(=O)/C=C/c2cc(-c3ccc4c(c3)OCO4)n[nH]2)cc(OC)c1OC,GI50,[1],2.9 µM
same,TGI,[1],10.3 µM
same,CC50,[1],40.3 µM
same,GI50,[2],2.45 µM
same,TGI,[2],7.64 µM
same,CC50,[2],31.2 µM
same,GI50,[3],3.32 µM
same,LC50 (concentration killing 50% of cells),[3],37.7 µM
same,TGI,[3],13.3 µM
same,GI50,[4],4.44 µM
same,LC50,[4],38.8 µM
same,TGI,[4],14.6 µM
same,GI50,[5],2.26 µM
same,LC50,[5],23.4 µM
same,TGI,[5],6.28 µM
same,growth at 0.01 µM,[6],99%
same,growth at 0.01 µM,[7],94%
same,growth at 0.01 µM,[8],101%
same,growth at 0.01 µM,[9],97%
same,growth at 0.01 µM,[10],97%
same,growth at 0.1 µM,[11],98%
same,growth at 0.1 µM,[12],95%
same,growth at 0.1 µM,[13],93%
same,growth at 0.1 µM,[14],97%
same,growth at 0.1 µM,[15],90%
same,growth at 1 µM,[16],80%
same,growth at 1 µM,[17],77%
same,growth at 1 µM,[18],47%
same,growth at 1 µM,[19],79%
same,growth at 1 µM,[20],109%
same,growth at 1 µM,[21],83%
same,growth at 1 µM,[22],68%
same,growth at 10 µM,[23],-19%
same,growth at 10 µM,[24],-22%
same,growth at 10 µM,[25],-57%
same,growth at 10 µM,[26],-29%
same,growth at 10 µM,[27],-62%
same,growth at 10 µM,[28],10%
same,growth at 100 µM,[29],-20%
same,growth at 100 µM,[30],-46%
same,growth at 100 µM,[31],-83%
same,growth at 100 µM,[32],-47%
same,growth at 100 µM,[33],-100%
same,growth at 100 µM,[34],-19%
same,growth at 100 µM,[35],-96%
COc1cc2c(cc1OC)C(=O)/C(=C/c1cc(-c3ccc4c(c3)OCO4)n[nH]1)C2,GI50,[1],1.87 µM
same,TGI,[1],3.91 µM
same,CC50,[1],8.19 µM
same,GI50,[2],1.63 µM
same,TGI,[2],3.37 µM
same,CC50,[2],6.99 µM
same,GI50,[3],1.89 µM
same,LC50 (concentration killing 50% of cells),[3],5.61 µM
same,TGI,[3],3.06 µM
same,GI50,[4],2.89 µM
same,LC50,[4],25.2 µM
same,TGI,[4],7.16 µM
same,GI50,[5],1.59 µM
same,LC50,[5],5.62 µM
same,TGI,[5],2.99 µM
same,growth at 0.01 µM,[6],95%
same,growth at 0.01 µM,[7],93%
same,growth at 0.01 µM,[8],100%
same,growth at 0.01 µM,[9],100%
same,growth at 0.01 µM,[10],96%
same,growth at 0.1 µM,[11],99%
same,growth at 0.1 µM,[12],99%
same,growth at 0.1 µM,[13],96%
same,growth at 0.1 µM,[14],97%
same,growth at 0.1 µM,[15],99%
same,growth at 1 µM,[16],-6%
same,growth at 1 µM,[17],56%
same,growth at 1 µM,[18],57%
same,growth at 1 µM,[19],69%
same,growth at 1 µM,[20],106%
same,growth at 1 µM,[21],88%
same,growth at 1 µM,[22],54%
same,growth at 10 µM,[23],-24%
same,growth at 10 µM,[24],-90%
same,growth at 10 µM,[25],-56%
same,growth at 10 µM,[26],-88%
same,growth at 10 µM,[27],-96%
same,growth at 10 µM,[28],-9%
same,growth at 100 µM,[29],-38%
same,growth at 100 µM,[30],-46%
same,growth at 100 µM,[31],-78%
same,growth at 100 µM,[32],-52%
same,growth at 100 µM,[33],-98%
same,growth at 100 µM,[34],-40%
same,growth at 100 µM,[35],-95%
